Consider one substance from patent publication US20180055915A1, “COMPOSITIONS AND METHODS FOR TREATING PROSTATE CANCER” (UNIVERSITY OF ROCHESTER, priority 2016, published 2018).

The test system of assay [1] is lncRNA RP11-473I1.9. Description: lncRNA RP11-473I1.9 expression (real-time PCR). It counts as cell-based. The conditions noted are these: FIG. 4G. How it is done:
(§1) Total RNAs were isolated using Trizol reagent (Invitrogen, Grand Island, N.Y.). 2 μg of total RNA was subjected to reverse transcription using Superscript III transcriptase (Invitrogen). Quantitative real-time PCR (qRT-PCR) was conducted using a Bio-Rad CFX96 system with SYBR green to determine the mRNA expression level of a gene of interest. Expression levels were normalized to the expression of GAPDH.
A general note: Real-time PCR tracks product formation cycle by cycle.

For assay [2], the system named is cPARP. The assay is described as follows: Cell apoptosis by cPARP level. In kind it is cell-based.
Assay [3] concerns Malat1. The assay is described as follows: Malat1 mRNA expression (real-time PCR). In kind it is cell-based. The conditions noted are these: EnzR1-C4-2 cells, FIG. 4F. How it is done: as §1
Assay [4] deals with glucocorticoid receptor (GR). Description: Glucocorticoid receptor expression. In kind it is cell-based.
Assay [5] relates to EnzR2-CWR22Rv1 cells. The assay is described as follows: MTT cell proliferation assay, EnzR2-CWR22Rv1. In kind it is cell-based. To be noted: FIG. 2E. How it is done: (§2) Cells were seeded in 24-well plates (5×10^3 cells/500 μL media per well) and cultured for 0, 2, 4 and 6 days. Cells were harvested and cell numbers and absorbance were calculated and recorded after using yellow tetrazolium MTT (3-(4, 5-dimethylthiazolyl-2)-2,5-diphenyltetrazolium bromide agent.
(In general: Tetrazolium dyes change colour on reduction, which living cells bring about.)

Assay [6] has as its system SF2. The assay is described as follows: SF2 protein level. In kind it is cell-based. How it is done:
Cells were lysed in lysis buffer and proteins (50 μg) were separated on 10% SDS/PAGE gel and then transferred onto PVDF membranes (Millipore, Billerica, Mass.). After blocking membranes with 5% milk, they were incubated with appropriate dilutions of specific primary antibodies (anti-AR (N-20), anti-SF2, anti-GFP, anti-GAPDH, anti-a-tubulin). The blots were incubated with HRP-conjugated secondary antibodies and visualized using ECL system (Thermo Fisher Scientific, Rochester, N.Y.).

Assay [7] deals with AR mRNA. The assay is described as follows: AR mRNA expression (real-time PCR). It counts as cell-based. To be noted: FIG. 5A. The method, then:
as §1

Assay [8] has as its system ARv7 mRNA. The assay is described as follows: ARv7 mRNA expression (real-time PCR). In kind it is cell-based. The method, then:
as §1

In assay [9] the test system is EnzR1-C4-2 cells. The assay is described as follows: MTT cell proliferation assay, EnzR1-C4-2. It counts as cell-based. The method, then:
as §2

For assay [10], the system named is EnzR2-CWR22Rv1 cells. Description: Orthotopic EnzR xenograft in castrated nude mice. In kind it is in vivo.
The test system of assay [11] is AR-ubiquitin complex. The assay is described as follows: AR-ubiquitination immunoprecipitation in 293T cells. In kind it is cell-based, human. To be noted: 293T cells with AR and ubiquitin-GPF, FIG. 4D. How it is done:
Then examined was whether ubiquitination involves in ARv7 (and AR) degradation. First added were AR and ubiquitin-GPF in 293T cells, and then applied the immunoprecipitation assay to examine Cis effect on AR-ubiquitination.
For protein degradation, EnzR C4-2 cells were treated with 1 μg/mL Cisplatin for 6 hr. Cycloheximide or MG132 was added for another 4 hrs. For ubiquitination, human kidney epithelial HEK293T cells were grown in DMEM media with 10% FCS. Cells were plated at ˜60% confluency and pGFP-ubiquitin, pAR were transiently transfected into cells using CaCl2 reagent. After 48 hrs. of transfection, cells were treated with 1 μg/mL Cisplatin for 6 hrs. […], MG132, was added for another 4 hrs. Cell extracts were analyzed for AR degradation or AR-ubiquitination by using western blot.

The test system of assay [12] is estrogen receptor b (ERb). Description: Estrogen receptor b expression. It counts as cell-based.

Sequence of SF2 (Q07955 whole entry): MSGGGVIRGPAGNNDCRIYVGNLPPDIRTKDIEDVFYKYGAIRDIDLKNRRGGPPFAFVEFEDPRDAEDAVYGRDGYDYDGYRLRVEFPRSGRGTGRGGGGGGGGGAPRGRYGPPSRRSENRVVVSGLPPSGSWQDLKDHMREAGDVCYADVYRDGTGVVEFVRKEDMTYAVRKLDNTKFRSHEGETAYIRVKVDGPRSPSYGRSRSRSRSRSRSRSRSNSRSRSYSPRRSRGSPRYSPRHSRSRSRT

“(SP-4-2)-diamminedichloroplatinum(II) [Cis]”: the “lncRNA RP11-473I1.9 expression” value in assay [1] is reported as “little effect”. Besides, the “cell apoptosis (cPARP)” value is “little change in cPARP” in assay [2] (EnzR3-C4-2 cells, Cis at 1 ug/mL, FIG. 2J) and “little change in cPARP” in assay [2] (EnzS1-C4-2 cells, Cis at 1-2 ug/mL, FIG. 2I). For the same substance, the “Malat1 mRNA expression” value in [3] is reported as “decreased in dose-dependent manner”. Moreover, the GR expression result in assay [4] is recorded as “little effect to decrease”. Moreover, the “IC50 (cell growth)” value in assay [5] was 5 µg/mL; in assay [9] (Cis combined with 20 uM Enz, FIG. 2C), around 5 µg/mL. The IC50 in assay [5] (read-out: IC50 (cell growth)) is 16.5 µM; in assay [9] (Cis combined with 20 uM Enz, FIG. 2C, read-out: IC50 (cell growth)) it was around 16.5 µM. In addition, the SF2 protein expression entry in assay [6] is reported as “may decrease SF2 protein expression in a dose-dependent manner”. In [7], the “AR mRNA” value is “could also decrease AR mRNA in a dose-dependent manner”. The “ARv7 mRNA expression” value is reported as “suppressed the Enz-increased ARv7 significantly” in assay [8] (Enz-S1-C4-2 cells, Enz plus Cis (0.2 ug/mL), FIG. 3D) and “decreased in dose-dependent manner” in [8] (EnzR1-C4-2 cells, FIG. 4E). In addition, the “suppression of cell growth” value in [9] (20 uM Enz combined with 2 ug/mL (6.6 uM) Cis, FIG. 2B) is recorded as “could suppress EnzR1-C4-2 cell growth”. Besides, in assay [10] (Enz 3.5 mg/kg every other day i.p. with vs without Cis 3.5 mg/kg weekly i.v., 3 weeks), the tumor progression entry was “can increase/restore the Enz sensitivity to further suppress the EnzR3-C4-2B tumor progression”. In addition, the “tumor expression of ARv7 (and AR), Malat1 and SF2 (immunohistochemistry)” value in assay [10] (tumor received Cis+Enz) is “lower expression of ARv7 (and AR), as well as Malat1 and SF2”. For the same substance, in assay [11], the AR-ubiquitin complex entry is “may increase the AR-ubiquitin complex”. Besides, the ERb expression result in [12] is recorded as “little effect to decrease”.

In general, IC50 refers to the concentration that inhibits the measured activity by half.
